The values that follow come from patent USRE38425E1, “Semicarbazones having CNS activity and pharmaceutical preparations containing same” (University of Saskatchewan Technologies, Inc., priority 1995, dated 2004).

For data set [1], the system named is rats. Briefly: MES screen after oral administration to rats. Conditions: oral administration to rats; for MES screen ED50: time t (h) per compound as in the table.
For the next data set, the system named is mice. Conditions: intraperitoneal injection into mice; 300 mg/kg.
For data set [2], the system named is rats. Briefly: neurotoxicity screen after oral administration to rats. As to conditions: oral administration to rats; time t (h) per compound as in the table.

Take `NC(=O)NN=Cc1ccc(OC(=O)c2ccc(Cl)cc2)cc1` [15c]: the “MES screen: number of rats out of 4 which were protected” value with rats [1] (dose 12.5 mg/kg, 0.25 h) is 1; in the data set on rats [1] (dose 12.5 mg/kg, 1 h) it was 1; with rats [1] (dose 12.5 mg/kg, 4 h), 2.

On to `NC(=O)NN=Cc1ccc(OCc2ccccc2)cc1` [15d], for which the “MES screen: number of rats out of 4 which were protected” value in the data set with rats [1] (dose 12.5 mg/kg, 1 h) is reported as 1; in the data set with rats [1] (dose 12.5 mg/kg, 2 h) it was 1.

As to `NC(=O)NN=Cc1ccc(Oc2ccccc2)cc1` [Compound 4a], the “MES screen 0.5 h: number of rats out of 4 which were protected” value (“MES screen 0.5 h: number” below) in the data set with rats [1] (dose 50 mg/kg) is given as 3. Further, the “MES screen 1 h: number of rats out of 4 which were protected” value (“MES screen 1 h: number” for short) in the data set with rats [1] (dose 50 mg/kg, 1 h) is given as 4. Besides, the “MES screen 2 h: number of rats out of 4 which were protected” value (“MES screen 2 h: number” below) in the data set on rats [1] (dose 50 mg/kg, 2 h) is 4. In addition, in the data set on rats [1] (dose 50 mg/kg, 4 h), the “MES screen 4 h: number of rats out of 4 which were protected” value (“MES screen 4 h: number” for short) was 4.

`NC(=O)NN=Cc1ccc(Oc2ccc(Cl)cc2)cc1` [Compound 4c]: the “MES screen 0.25 h: number of rats out of 4 which were protected” value (from here on “MES screen 0.25 h: number”) in the data set with rats [1] (dose 50 mg/kg, 0.25 h) is recorded as 4. Moreover, the “MES screen 0.5 h: number” value with rats [1] (dose 50 mg/kg) was found to be 4. In addition, in the data set on rats [1] (dose 50 mg/kg, 1 h), the “MES screen 1 h: number” value is reported as 4. Moreover, the “MES screen 2 h: number” value in the data set with rats [1] (dose 50 mg/kg, 2 h) is reported as 4. Besides, the “MES screen 4 h: number” value with rats [1] (dose 50 mg/kg, 4 h) was determined as 4.

With `NC(=O)NN=Cc1ccc(Oc2ccc(Br)cc2)cc1` [Compound 4d], in the data set on rats [1] (dose 50 mg/kg, 0.25 h), the “MES screen 0.25 h: number” value was 1. In addition, in the data set on rats [1] (dose 50 mg/kg), the “MES screen 0.5 h: number” value was determined as 4. For the same compound, the “MES screen 1 h: number” value in the data set on rats [1] (dose 50 mg/kg, 1 h) is recorded as 4. For the same compound, the “MES screen 2 h: number” value in the data set with rats [1] (dose 50 mg/kg, 2 h) amounted to 4. The “MES screen 4 h: number” value with rats [1] (dose 50 mg/kg, 4 h) turned out to be 4.

`NC(=O)NN=Cc1ccc(Oc2ccc(-c3ccccc3)cc2)cc1` [Compound 4g]: the “MES screen 2 h: number” value with rats [1] (dose 12.5 mg/kg, 2 h) is 3. Further, the “MES screen 4 h: number” value in the data set with rats [1] (dose 12.5 mg/kg, 4 h) came to 1.

Regarding `COc1ccc(Oc2ccc(C=NNC(N)=O)cc2)cc1` [Compound 4h], the “MES screen 0.5 h: number” value with rats [1] (dose 50 mg/kg) stood at 4. For the same compound, the “MES screen 1 h: number” value in the data set with rats [1] (dose 50 mg/kg, 1 h) came out at 4. Further, the “MES screen 2 h: number” value in the data set with rats [1] (dose 50 mg/kg, 2 h) worked out at 4. Moreover, the “MES screen 4 h: number” value in the data set on rats [1] (dose 50 mg/kg, 4 h) is 4.

`NC(=O)NN=Cc1ccc(Oc2ccc(Oc3ccccc3)cc2)cc1` [Compound 4i]: the “MES screen 2 h: number” value in the data set on rats [1] (dose 50 mg/kg, 2 h) is 1. In addition, in the data set with rats [1] (dose 50 mg/kg, 4 h), the “MES screen 4 h: number” value is given as 1.

For the compound `N#Cc1ccc(Oc2ccc(C=NNC(N)=O)cc2)cc1` [Compound 4j], in the data set on rats [1] (dose 12.5 mg/kg, 0.25 h), the “MES screen 0.25 h: number” value is reported as 2. Also, the “MES screen 0.5 h: number” value in the data set with rats [1] (dose 12.5 mg/kg) was determined as 4. Also, the “MES screen 1 h: number” value in the data set with rats [1] (dose 12.5 mg/kg, 1 h) was determined as 4. Moreover, the “MES screen 2 h: number” value with rats [1] (dose 12.5 mg/kg, 2 h) is recorded as 4. Besides, the “MES screen 4 h: number” value with rats [1] (dose 12.5 mg/kg, 4 h) was found to be 4.

`NC(=O)NN=Cc1ccc(Oc2ccc(F)cc2Br)cc1` [Compound 5m]: in the data set on rats [1] (dose 50 mg/kg, 0.25 h), the “MES screen 0.25 h: number” value was 4. For the same compound, the “MES screen 0.5 h: number” value in the data set on rats [1] (dose 50 mg/kg) stood at 4. The “MES screen 1 h: number” value in the data set on rats [1] (dose 50 mg/kg, 1 h) came out at 4. Further, the “MES screen 2 h: number” value in the data set with rats [1] (dose 50 mg/kg, 2 h) is 4. For the same compound, the “MES screen 4 h: number” value in the data set with rats [1] (dose 50 mg/kg, 4 h) is on record as 4.

In the case of `Cc1cccc(Oc2ccc(C=NNC(N)=O)cc2)c1` [Compound 5o], in the data set on mice, the “side effect in the scPTZ screen at the end of the 4 hours” value is given as “continuous seizure activity followed by death”. Besides, the “MES screen 0.5 h: number” value with rats [1] (dose 12.5 mg/kg) was 4. Moreover, the “MES screen 1 h: number” value with rats [1] (dose 12.5 mg/kg, 1 h) is recorded as 4. Further, in the data set with rats [1] (dose 12.5 mg/kg, 2 h), the “MES screen 2 h: number” value amounted to 3. Moreover, the “MES screen 4 h: number” value in the data set with rats [1] (dose 12.5 mg/kg, 4 h) amounted to 2. Moreover, in the data set with rats [1], the “MES screen ED50” value is given as 3.07 mg/kg. In the data set with rats [2], the “neurotoxicity screen TD50” value was >500 mg/kg.

For `CCc1ccc(Oc2ccc(C=NNC(N)=O)cc2)cc1` [Compound 5p], the “MES screen 0.5 h: number” value in the data set on rats [1] (dose 12.5 mg/kg) was 2. Besides, the “MES screen 1 h: number” value with rats [1] (dose 12.5 mg/kg, 1 h) was 4. Moreover, the “MES screen 2 h: number” value in the data set on rats [1] (dose 12.5 mg/kg, 2 h) was found to be 4. In addition, the “MES screen 4 h: number” value with rats [1] (dose 12.5 mg/kg, 4 h) was found to be 4. The “MES screen ED50” value with rats [1] worked out at 6.48 mg/kg.
